# In patent US9856262B2, “Analogues of 4H-pyrazolo[1,5-a] benzimidazole compound as PARP inhibitors” (HUBEI BIO-PHARMACEUTICAL INDUSTRIAL TECHNOLOGICAL INSTITUTE …, priority 2014, dated 2018):
# Assays:
# PARP-1 = biological target: T1, PARP-1 (Homo sapiens, UniProt P09874); test: PARP enzymatic assay (HT Universal Colorimetric PARP1 Assay Kit); assay type: biochemical; details: read-out: PARP-1 enzymatic inhibition IC50
# T1 construct: purchased
# Procedure: PARP Enzymatic Assay (Following the Manual of HT Universal Colorimetric PARP1 Assay Kit).
# Histone proteins were coated on a 96-well plate and incubated overnight at 4° C. After be washed 3 times with 200 ul PBST solution, the plate was blocked with a blocking solution and incubated for 30 min at room temperature, and then washed with PBST solution 3 times. A compound to be tested was treated and added to the plate. Thereafter, 20 μl of diluted PARP1 (1 nM) or 20 μl of PARP2 (3 nM) solution was added into the reaction system and incubated for 1 or 2 hours. 50 ul of streptavidin-HRP mixture (1:50) was added into the plate and incubated for 30 min at room temperature. The plate was then washed with three times with PBST buffer. 100 μl of (HRP) (Chemiluminescent substrate A and substrate B (1:1)) was added into the plate, and the plate was immediately read on a microplate reader (Envision, PerkinElmer).
# HCC1937 cells = test: Cellular PARylation assay; assay type: cell-based; details: Homo sapiens; HCC1937 cells, compound 30 min then 1 mM H2O2 10 min; read-out: cellular PARylation EC50
# Procedure: Cellular PARylation Assay
# HCC1937 cells were planted into 96 well plates at 4×10^4 cells/well and incubated at 37° C. in an incubator overnight. After being treated with a test compound for 30 min, cells were then treated with 1 mM H2O2 for 10 min. The cells were washed with 200 ul pre-chilled PBS twice and fixed with 100 ul pre-chilled methanol/acetone (7:3) on ice for 30 min. After being air-dried, the plates were blocked using PBS-Tween blocking solution (0.05%) with dissolved 5% nonfat dry milk for 30 min at room temperature. The cells were incubated with anti-PAR antibody 10H (1:100) at room temperature for 1 hour followed by washing with PBS-Tween20 for 3 times; and then added into a blocking solution including goat anti-mouse fluorescein isothiocyanate (FITC)-coupled secondary antibody and 1 μg/mL DAPI to incubate away from light at room temperature for 1 hour. After being washed with PBS-Tween20 for 3 times, the plate was analyzed with a fluorescence microplate counter (Flexstation III, Molecular Device).
# T1 sequence (P09874 whole entry): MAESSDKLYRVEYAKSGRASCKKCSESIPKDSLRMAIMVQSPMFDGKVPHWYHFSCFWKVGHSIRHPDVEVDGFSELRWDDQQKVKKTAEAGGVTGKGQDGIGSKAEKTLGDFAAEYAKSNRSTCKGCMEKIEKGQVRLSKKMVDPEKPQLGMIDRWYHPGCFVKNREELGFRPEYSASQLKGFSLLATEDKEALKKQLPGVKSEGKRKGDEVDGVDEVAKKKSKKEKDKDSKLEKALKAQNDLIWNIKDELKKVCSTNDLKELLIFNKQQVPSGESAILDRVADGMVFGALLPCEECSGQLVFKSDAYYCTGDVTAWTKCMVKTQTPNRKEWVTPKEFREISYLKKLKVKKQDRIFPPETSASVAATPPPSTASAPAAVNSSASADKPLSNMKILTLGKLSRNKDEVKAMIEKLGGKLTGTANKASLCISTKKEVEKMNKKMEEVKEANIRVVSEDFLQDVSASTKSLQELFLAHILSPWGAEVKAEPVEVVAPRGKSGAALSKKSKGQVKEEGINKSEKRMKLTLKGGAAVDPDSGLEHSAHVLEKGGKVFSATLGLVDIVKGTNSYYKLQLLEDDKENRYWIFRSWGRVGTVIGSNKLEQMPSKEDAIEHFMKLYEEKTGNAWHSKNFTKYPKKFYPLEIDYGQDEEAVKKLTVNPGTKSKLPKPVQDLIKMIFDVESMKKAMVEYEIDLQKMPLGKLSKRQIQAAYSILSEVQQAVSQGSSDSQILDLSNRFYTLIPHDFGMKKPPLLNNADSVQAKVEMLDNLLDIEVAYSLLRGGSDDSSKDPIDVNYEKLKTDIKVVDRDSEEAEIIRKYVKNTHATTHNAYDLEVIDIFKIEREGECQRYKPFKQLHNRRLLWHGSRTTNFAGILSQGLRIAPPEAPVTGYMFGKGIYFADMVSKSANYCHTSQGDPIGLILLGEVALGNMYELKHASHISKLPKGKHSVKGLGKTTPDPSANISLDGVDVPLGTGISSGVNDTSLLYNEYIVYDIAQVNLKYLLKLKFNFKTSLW
SMILES,IC50 (PARP-1) [µM],EC50 (HCC1937 cells) [µM]
"CC(C)(F)CN1CCC(c2cnn3c2[nH]c2cc(F)cc(C(N)=O)c23)CC1 [Example 7, 6-fluoro-3-(1-(2-fluoro-2-methylpropyl)piperidin-4-yl)-4H-benzo[4,5]imidazo[1,2-b]pyrazole-8-carboxamide]",0.001 to 0.1,0.001 to 0.1
"CC1(c2cnn3c2[nH]c2cc(F)cc(C(N)=O)c23)CCN(CCF)C1 (stereo not drawn) [Example 95, 6-fluoro-3-(1-(2-fluoroethyl)-3-methylpyrrolidin-3-yl)-4H-benzo[4,5]imidazo[1,2-b]pyrazole-8-carboxamide]",0.001 to 0.1,0.001 to 0.1
"Cc1nn2c([nH]c3cc(F)cc(C(N)=O)c32)c1C1(C)CCN(CC(C)(C)O)CC1 [Example 116, 6-fluoro-3-(1-(2-hydroxy-2-methylpropyl)-4-methylpiperidin-4-yl)-2-methyl-4H-benzo[4,5]imidazo[1,2-b]pyrazole-8-carboxamide]",0.001 to 0.1,0.001 to 0.1
"CCN1C2CCC1CC(c1cnn3c1[nH]c1cc(F)cc(C(N)=O)c13)C2 (stereo not drawn) [Example 35, 3-(8-ethyl-8-azabicyclo[3.2.1]octan-3-yl)-6-fluoro-4H-benzo[4,5]imidazo[1,2-b]pyrazole-8-carboxamide]",0.001 to 0.1,0.101 to 1
"Cc1nn2c([nH]c3cc(F)cc(C(N)=O)c32)c1C1(C)CCN(C)CC1 [Example 115, 3-(1,4-dimethylpiperidin-4-yl)-6-fluoro-2-methyl-4H-benzo[4,5]imidazo[1,2-b]pyrazole-8-carboxamide]",0.001 to 0.1,0.001 to 0.1
"CC1(c2cnn3c2[nH]c2cc(F)cc(C(N)=O)c23)CCN(CCC#N)C1 (stereo not drawn) [Example 103, 3-(1-(2-cyanoethyl)-3-methylpyrrolidin-3-yl)-6-fluoro-4H-benzo[4,5]imidazo[1,2-b]pyrazole-8-carboxamide]",0.001 to 0.1,0.101 to 1
"CC1(c2cnn3c2[nH]c2cc(F)cc(C(N)=O)c23)CCN(Cc2ccc(=O)[nH]n2)CC1 [Example 87, 6-fluoro-3-(4-methyl-1-((6-oxo-1,6-dihydropyridazin-3-yl)methyl)piperidin-4-yl)-4H-benzo[4,5]imidazo[1,2-b]pyrazole-8-carboxamide]",0.001 to 0.1,0.101 to 1
"CCN1CC2CC2(c2cnn3c2[nH]c2cc(F)cc(C(N)=O)c23)C1 (stereo not drawn) [Example 29, 3-(3-ethyl-3-azabicyclo[3.1.0]hexan-1-yl)-6-fluoro-4H-benzo[4,5]imidazo[1,2-b]pyrazole-8-carboxamide]",0.001 to 0.1,0.001 to 0.1
"CC1(c2cnn3c2[nH]c2cc(F)cc(C(N)=O)c23)CCN(CC2(S(C)(=O)=O)CC2)CC1 [Example 73, 6-fluoro-3-(4-methyl-1-((1-(methylsulfonyl)cyclopropyl)methyl)piperidin-4-yl)-4H-benzo[4,5]imidazo[1,2-b]pyrazole-8-carboxamide]",0.001 to 0.1,0.001 to 0.1
"CCN1CCC(c2cnn3c2[nH]c2cc(F)cc(C(N)=O)c23)C1 (stereo not drawn) [Example 21, 3-(1-ethylpyrrolidin-3-yl)-6-fluoro-4H-benzo[4,5]imidazo[1,2-b]pyrazole-8-carboxamide]",0.001 to 0.1,0.001 to 0.1
"CCN1CCC(c2cnn3c2[nH]c2cc(F)cc(C(N)=O)c23)CC1 [Example 2, 3-(1-ethylpiperidin-4-yl)-6-fluoro-4H-benzo[4,5]imidazo[1,2-b]pyrazole-8-carboxamide]",0.001 to 0.1,0.001 to 0.1
"NC(=O)c1cc(F)cc2[nH]c3c(CNC(=O)C4CC4)cnn3c12 [Example 40, 3-(cyclopropanecarboxamidomethyl)-6-fluoro-4H-benzo[4,5]imidazo[1,2-b]pyrazole-8-carboxamide]",0.001 to 0.1,> 1
"CC1(c2cnn3c2[nH]c2cc(F)cc(C(N)=O)c23)CCN(CC2CC2(F)F)C1 (stereo not drawn) [Example 96, 3-(1-((2,2-difluorocyclopropyl)methyl)-3-methylpyrrolidin-3-yl)-6-fluoro-4H-benzo[4,5]imidazo[1,2-b]pyrazole-8-carboxamide]",0.001 to 0.1,0.001 to 0.1
"NC(=O)c1cc(F)cc2[nH]c3c(C4CCN(C(=O)C5CC5)CC4)cnn3c12 [Example 8, 3-(1-(cyclopropylcarbonyl)piperidin-4-yl)-6-fluoro-4H-benzo[4,5]imidazo[1,2-b]pyrazole-8-carboxamide]",0.001 to 0.1,0.101 to 1
"CC(C)N1CCC(c2cnn3c2[nH]c2cc(F)cc(C(N)=O)c23)CC1 [Example 10, 6-fluoro-3-(1-isopropylpiperidin-4-yl)-4H-benzo[4,5]imidazo[1,2-b]pyrazole-8-carboxamide]",0.001 to 0.1,0.001 to 0.1
"CCN1CCC(C)(c2c(C)nn3c2[nH]c2cc(F)cc(C(N)=O)c23)CC1 [Example 112, 3-(1-ethyl-4-methylpiperidin-4-yl)-6-fluoro-2-methyl-4H-benzo[4,5]imidazo[1,2-b]pyrazole-8-carboxamide]",0.001 to 0.1,0.001 to 0.1
"CCN1CCC(N2CCC(C)(c3cnn4c3[nH]c3cc(F)cc(C(N)=O)c34)CC2)CC1 [Example 86, 3-(1′-ethyl-4-methyl-[1,4′-bipiperidin]-4-yl)-6-fluoro-4H-benzo[4,5]imidazo[1,2-b]pyrazole-8-carboxamide]",0.001 to 0.1,0.001 to 0.1
"NC(=O)c1cc(F)cc2[nH]c3c(-c4ccc(F)cc4)cnn3c12 [Example 41, 6-fluoro-3-(4-fluorophenyl)-4H-benzo[4,5]imidazo[1,2-b]pyrazole-8-carboxamide]",0.101 to 1,> 1
"Cc1nn2c([nH]c3cc(F)cc(C(N)=O)c32)c1C1(C)CCN(CC2CC2)CC1 [Example 111, 3-(1-(cyclopropylmethyl)-4-methylpiperidin-4-yl)-6-fluoro-2-methyl-4H-benzo[4,5]imidazo[1,2-b]pyrazole-8-carboxamide]",0.001 to 0.1,0.001 to 0.1
"CN1CC2CC2(c2cnn3c2[nH]c2cc(F)cc(C(N)=O)c23)C1 (stereo not drawn) [Example 28, 6-fluoro-3-(3-methyl-3-azabicyclo[3.1.0]hexan-1-yl)-4H-benzo[4,5]imidazo[1,2-b]pyrazole-8-carboxamide]",0.001 to 0.1,0.001 to 0.1
"CN1CCCC1c1cnn2c1[nH]c1cc(F)cc(C(N)=O)c12 (stereo not drawn) [Example 25, 6-fluoro-3-(1-methylpyrrolidin-2-yl)-4H-benzo[4,5]imidazo[1,2-b]pyrazole-8-carboxamide]",0.001 to 0.1,0.001 to 0.1
"NC(=O)c1cc(F)cc2[nH]c3c(C4CCN(CCF)CC4)cnn3c12 [Example 3, 6-fluoro-3-(1-(2-fluoroethyl)piperidin-4-yl)-4H-benzo[4,5]imidazo[1,2-b]pyrazole-8-carboxamide]",0.001 to 0.1,0.001 to 0.1
"NC(=O)c1cc(F)cc2[nH]c3c(C4CCN(CC5CC5)CC4)cnn3c12 [Example 5, 3-(1-(cyclopropylmethyl)piperidin-4-yl)-6-fluoro-4H-benzo[4,5]imidazo[1,2-b]pyrazole-8-carboxamide]",0.001 to 0.1,0.001 to 0.1
CN(C)C(=O)C1CC1CN1CCC(C)(c2cnn3c2[nH]c2cc(F)cc(C(N)=O)c23)CC1 (stereo not drawn) [Example 81],0.001 to 0.1,0.001 to 0.1
"CC(C)(O)CN1CCC(c2cnn3c2[nH]c2cc(F)cc(C(N)=O)c23)CC1 [Example 6, 6-fluoro-3-(1-(2-hydroxy-2-methylpropyl)piperidin-4-yl)-4H-benzo[4,5]imidazo[1,2-b]pyrazole-8-carboxamide]",0.001 to 0.1,0.001 to 0.1
"CN1CCN(C(=O)c2cnn3c2[nH]c2cc(F)cc(C(N)=O)c23)CC1 [Example 49, 6-fluoro-3-(4-methylpiperazine-1-carbonyl)-4H-benzo[4,5]imidazo[1,2-b]pyrazole-8-carboxamide]",0.001 to 0.1,0.101 to 1
"COCCN1CCC(c2cnn3c2[nH]c2cc(F)cc(C(N)=O)c23)CC1 [Example 15, 6-fluoro-3-(1-(2-methoxyethyl)piperidin-4-yl)-4H-benzo[4,5]imidazo[1,2-b]pyrazole-8-carboxamide]",0.001 to 0.1,0.001 to 0.1
"CC1(c2cnn3c2[nH]c2cc(F)cc(C(N)=O)c23)CCN(Cc2nccs2)CC1 [Example 74, 6-fluoro-3-(4-methyl-1-(thiazol-2-ylmethyl)piperidin-4-yl)-4H-benzo[4,5]imidazo[1,2-b]pyrazole-8-carboxamide]",0.001 to 0.1,0.101 to 1
"N#Cc1cnn2c1[nH]c1cccc(C(N)=O)c12 [Example 38, 3-cyano-4H-benzo[4,5]imidazo[1,2-b]pyrazole-8-carboxamide]",0.101 to 1,> 1
"CC1(c2cnn3c2[nH]c2cc(F)cc(C(N)=O)c23)CN(CC2CC2)C1 [Example 104, 3-(1-(cyclopropylmethyl)-3-methylazetidin-3-yl)-6-fluoro-4H-benzo[4,5]imidazo[1,2-b]pyrazole-8-carboxamide]",0.001 to 0.1,0.001 to 0.1
